Assay results published in ChEMBL document CHEMBL5154919, “New ZW4864 Derivatives as Small-Molecule Inhibitors for the β-Catenin/BCL9 Protein-Protein Interaction” (ACS Med Chem Lett, 2022).

Experiments:
[1] = tested on: MDA-MB-231; assay: Antiproliferative activity against human MDA-MB-231 cells assessed as inhibition of cell growth measured by MTS method; format: functional, cell-based
[2] = tested on: SW480; assay: Effect of Wnt/beta-Catenin signaling pathway in human SW480 cells assessed as decrease in Axin2 level at 20 uM incubated for 24 hrs by Western blot analysis; format: functional, cell-based; conditions: DDE = dose-dependent effect
[3] = molecular target: T1, beta-catenin-B-cell lymphoma 9 protein complex (Homo sapiens, UniProt P35222); assay: Inhibition of full length beta-catenin (1 to 781 residues) (unknown origin) expressed in Escherichia coli BL21 (DE3)-N-terminal biotinylated human BCL9 (350 to 375 residues) protein-protein interaction incubated for 1 hr by Alphascreen assay
T1 sequence (P35222 whole entry): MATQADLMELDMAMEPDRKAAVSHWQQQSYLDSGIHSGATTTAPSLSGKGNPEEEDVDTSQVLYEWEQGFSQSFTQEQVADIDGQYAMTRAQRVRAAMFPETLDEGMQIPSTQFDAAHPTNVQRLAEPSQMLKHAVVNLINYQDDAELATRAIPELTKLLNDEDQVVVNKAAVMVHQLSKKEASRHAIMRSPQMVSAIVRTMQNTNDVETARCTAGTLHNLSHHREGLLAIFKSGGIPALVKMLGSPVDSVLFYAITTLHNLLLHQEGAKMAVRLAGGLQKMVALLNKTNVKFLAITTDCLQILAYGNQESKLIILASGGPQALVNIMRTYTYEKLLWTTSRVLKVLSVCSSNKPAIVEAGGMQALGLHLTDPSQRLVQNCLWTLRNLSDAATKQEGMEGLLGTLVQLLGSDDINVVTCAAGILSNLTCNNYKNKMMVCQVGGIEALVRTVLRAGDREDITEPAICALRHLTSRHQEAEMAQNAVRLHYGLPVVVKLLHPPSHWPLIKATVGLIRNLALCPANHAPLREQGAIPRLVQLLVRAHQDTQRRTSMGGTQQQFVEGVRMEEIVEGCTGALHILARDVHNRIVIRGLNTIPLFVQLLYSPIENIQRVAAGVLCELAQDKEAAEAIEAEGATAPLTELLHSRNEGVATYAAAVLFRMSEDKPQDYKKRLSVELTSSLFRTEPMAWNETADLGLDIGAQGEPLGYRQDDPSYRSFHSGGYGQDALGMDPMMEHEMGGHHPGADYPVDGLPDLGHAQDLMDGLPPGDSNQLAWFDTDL
T1 sequence (O00512 whole entry): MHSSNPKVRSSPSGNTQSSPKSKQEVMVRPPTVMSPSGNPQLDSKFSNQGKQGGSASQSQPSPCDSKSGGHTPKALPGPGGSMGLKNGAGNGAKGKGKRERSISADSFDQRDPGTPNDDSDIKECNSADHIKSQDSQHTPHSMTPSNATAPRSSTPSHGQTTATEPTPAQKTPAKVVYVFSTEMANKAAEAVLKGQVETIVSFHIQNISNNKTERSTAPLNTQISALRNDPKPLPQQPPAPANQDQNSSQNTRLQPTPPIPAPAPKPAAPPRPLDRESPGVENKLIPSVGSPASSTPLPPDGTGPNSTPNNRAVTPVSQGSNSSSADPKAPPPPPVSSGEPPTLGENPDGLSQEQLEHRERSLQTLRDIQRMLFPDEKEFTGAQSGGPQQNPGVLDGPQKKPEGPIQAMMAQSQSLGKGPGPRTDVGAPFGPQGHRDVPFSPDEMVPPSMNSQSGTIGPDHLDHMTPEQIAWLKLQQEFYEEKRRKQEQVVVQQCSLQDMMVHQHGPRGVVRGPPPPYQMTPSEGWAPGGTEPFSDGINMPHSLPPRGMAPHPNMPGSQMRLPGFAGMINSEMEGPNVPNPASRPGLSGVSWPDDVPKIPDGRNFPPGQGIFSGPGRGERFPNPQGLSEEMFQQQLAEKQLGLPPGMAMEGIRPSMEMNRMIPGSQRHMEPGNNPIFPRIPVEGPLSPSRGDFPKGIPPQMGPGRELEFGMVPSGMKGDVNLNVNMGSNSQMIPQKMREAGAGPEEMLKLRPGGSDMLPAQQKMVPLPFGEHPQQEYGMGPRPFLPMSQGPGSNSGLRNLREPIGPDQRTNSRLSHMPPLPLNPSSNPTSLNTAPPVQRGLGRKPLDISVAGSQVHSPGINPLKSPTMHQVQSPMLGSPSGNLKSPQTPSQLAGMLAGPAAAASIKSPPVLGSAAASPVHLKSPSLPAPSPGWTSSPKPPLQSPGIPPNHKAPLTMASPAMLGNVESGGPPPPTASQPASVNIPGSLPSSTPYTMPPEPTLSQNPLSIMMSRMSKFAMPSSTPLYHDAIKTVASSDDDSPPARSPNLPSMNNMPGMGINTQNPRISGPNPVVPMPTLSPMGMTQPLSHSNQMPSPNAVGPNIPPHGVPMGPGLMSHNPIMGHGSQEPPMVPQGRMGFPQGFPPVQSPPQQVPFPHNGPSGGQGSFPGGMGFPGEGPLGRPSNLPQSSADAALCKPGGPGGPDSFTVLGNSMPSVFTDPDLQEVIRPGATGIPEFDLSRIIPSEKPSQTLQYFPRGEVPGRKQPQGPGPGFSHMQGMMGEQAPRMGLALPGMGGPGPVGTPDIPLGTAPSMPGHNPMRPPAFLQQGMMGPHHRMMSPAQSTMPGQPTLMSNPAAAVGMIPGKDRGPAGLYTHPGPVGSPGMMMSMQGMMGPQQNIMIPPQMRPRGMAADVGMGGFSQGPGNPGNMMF

IC50 [1]: 6.3 µM | IC50 [3]: 3.4 µM | Ki [3]: 2.7 µM
SMILES: CC(C)(Oc1cccc(N2CCC[C@@H](C(=O)N(Cc3ccc(-c4cnc5[nH]ccc5c4)cc3)C3CC3)C2)c1)C(=O)N1CCNCC1.Cl
inhibition [2]: Dde
